Source: patent publication US20220177818A1, “OPERATION PROCESS FOR A CELL CULTIVATION SYSTEM” (THE AUTOMATION PARTNERSHIP (CAMBRIDGE ) LTD., priority 2019, published 2022)

Test system: fucosyltransferase
Assay: Feedback experiment: glycan profile of the monoclonal antibody from parallel CHO-bioreactor cultivations after feeding the inhibitor
Format: cell-based
Conditions: Day 12 (end of cultivation), inhibitor in feed once per day from day 4; average of all 3 cultivations; relative to total measured glycans
Text: In said experiment, parallel CHO-bioreactor cultivations producing a monoclonal antibody were started.
Values are in relative to the total amount of measured glycans. The different glycan profile abbreviations are explained in FIG. 7B. […] A decision was taken to reduce the fucosylated species, for example in order to increase ADCC potency (see e.g. Peipp et al 2008).
For this reason, the feeding strategy was adapted to contain an inhibitor of fucosyltransferase (2F-Peracetly-Fucose) in the feed (73). The feed was administered once per day throughout the experiment. Process samples were taken at the end of cultivation (day 12) and analyzed to check for the effect of the altered feeding strategy and compared to data from standard cultivations (74).

percentage distribution of analyzed glycans: FA2: 7,3%
percentage distribution of analyzed glycans: FA2G1: 2,6%
percentage distribution of analyzed glycans: FA2G2: 0,26%
SMILES: CC(=O)OC1O[C@@H](C)[C@@H](OC(C)=O)[C@@H](OC(C)=O)[C@@H]1F (stereo partly drawn) [2F-Peracetly-Fucose, 2F-Peracetyl-Fucose]
